Tests used:
Type in all cases: in vivo
[1] = tested on: sedge, umbrella (small-flower umbrella sedge, Cyperus difformis); experiment: Test B flooded paddy test, visual plant response rating; conditions: 250 g ai/ha, Flood, applied to paddy water, 2-leaf stage, evaluated after 13 to 15 days
Method in brief: (§1)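 Visual scores compare treated plants with controls after 13 to 15 days of greenhouse growth. Treatment was made into paddy water standing 3 cm above the soil, with plants at the 2-leaf stage and flooding maintained throughout.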

[2] = tested on: ducksalad (Heteranhera limosa); experiment: as above; conditions: 250 g ai/ha, Flood, applied to paddy water, 2-leaf stage, evaluated after 13 to 15 days
Method in brief: as §1

rice (Oryza sativa) = experiment: as above; conditions: 250 g ai/ha, Flood, applied to paddy water, 2-leaf stage, evaluated after 13 to 15 days
Method in brief: as §1

[3] = tested on: barnyardgrass (Echinochloa crus-galli); experiment: as above; conditions: 250 g ai/ha, Flood, applied to paddy water, 2-leaf stage, evaluated after 13 to 15 days
Method in brief: as §1

kochia (Kochia scoparia) [4] = experiment: Test A postemergence, visual plant response rating; conditions: for Kochia plant response rating (0 to 100 scale): 500 g ai/ha, postemergence, 0 is no effect, 100 is complete control; for Kochia plant response rating: Postemergence, 125 g ai/ha, 0 to 100 scale (0 no effect, 100 complete control)
Method in brief: (§2)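 Ratings 0–100 (100 = complete control), visual, vs untreated controls at ~10 days. Application pre- or postemergence; solvent mixture with surfactant; loam/sand medium.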

corn (Zea mays) = experiment: Test A postemergence, visual plant response rating; conditions: for Corn plant response rating (0 to 100 scale): 500 g ai/ha, postemergence, 0 is no effect, 100 is complete control; for Corn plant response rating: Postemergence, 125 g ai/ha, 0 to 100 scale (0 no effect, 100 complete control)
Method in brief: as §2

[5] = tested on: ragweed (common ragweed, Ambrosia elatior); experiment: Test A postemergence, visual plant response rating; conditions: for Ragweed plant response rating (0 to 100 scale): 500 g ai/ha, postemergence, 0 is no effect, 100 is complete control; for Ragweed plant response rating: Postemergence, 125 g ai/ha, 0 to 100 scale (0 no effect, 100 complete control)
Method in brief: as §2

[6] = tested on: galium (catchweed bedstraw, Galium aparine); experiment: Test A postemergence, visual plant response rating; conditions: for Galium plant response rating (0 to 100 scale): 500 g ai/ha, postemergence, 0 is no effect, 100 is complete control; for Galium plant response rating: Postemergence, 125 g ai/ha, 0 to 100 scale (0 no effect, 100 complete control)
Method in brief: as §2

[7] = tested on: barnyardgrass (Echinochloa crus-galli); experiment: Test A postemergence, visual plant response rating; conditions: for Barnyardgrass plant response rating (0 to 100 scale): 500 g ai/ha, postemergence, 0 is no effect, 100 is complete control; for Barnyardgrass plant response rating: Postemergence, 125 g ai/ha, 0 to 100 scale (0 no effect, 100 complete control)
Method in brief: as §2

[8] = tested on: blackgrass (Alopecurus myosuroides); experiment: Test A postemergence, visual plant response rating; conditions: for Blackgrass plant response rating (0 to 100 scale): 500 g ai/ha, postemergence, 0 is no effect, 100 is complete control; for Blackgrass plant response rating: Postemergence, 125 g ai/ha, 0 to 100 scale (0 no effect, 100 complete control)
Method in brief: as §2

[9] = tested on: wheat (Triticum aestivum); experiment: Test A postemergence, visual plant response rating; conditions: for Wheat plant response rating (0 to 100 scale): 500 g ai/ha, postemergence, 0 is no effect, 100 is complete control; for Wheat plant response rating: Postemergence, 125 g ai/ha, 0 to 100 scale (0 no effect, 100 complete control)
Method in brief: as §2

[10] = tested on: Italian ryegrass (Lolium multiflorum); experiment: Test A postemergence, visual plant response rating; conditions: for Ryegrass, Italian plant response rating (0 to 100 scale): 500 g ai/ha, postemergence, 0 is no effect, 100 is complete control; for Ryegrass, Italian plant response rating: Postemergence, 125 g ai/ha, 0 to 100 scale (0 no effect, 100 complete control)
Method in brief: as §2

[11] = tested on: foxtail, green (green foxtail, Setaria viridis); experiment: Test A postemergence, visual plant response rating; conditions: for Foxtail, Green plant response rating (0 to 100 scale): 500 g ai/ha, postemergence, 0 is no effect, 100 is complete control; for Foxtail, Green plant response rating: Postemergence, 125 g ai/ha, 0 to 100 scale (0 no effect, 100 complete control)
Method in brief: as §2

[12] = tested on: pigweed (Amaranthus retroflexus); experiment: Test A postemergence, visual plant response rating; conditions: for Pigweed plant response rating (0 to 100 scale): 500 g ai/ha, postemergence, 0 is no effect, 100 is complete control; for Pigweed plant response rating: Postemergence, 125 g ai/ha, 0 to 100 scale (0 no effect, 100 complete control)
Method in brief: as §2

kochia (Kochia scoparia) [13] = experiment: Test A preemergence, visual plant response rating; conditions: approx. 10 days
Method in brief: as §2

[14] = tested on: ragweed (common ragweed, Ambrosia elatior); experiment: Test A preemergence, visual plant response rating; conditions: approx. 10 days
Method in brief: as §2

[15] = tested on: barnyardgrass (Echinochloa crus-galli); experiment: Test A preemergence, visual plant response rating; conditions: approx. 10 days
Method in brief: as §2

[16] = tested on: Italian ryegrass (Lolium multiflorum); experiment: Test A preemergence, visual plant response rating; conditions: approx. 10 days
Method in brief: as §2

[17] = tested on: foxtail, green (green foxtail, Setaria viridis); experiment: Test A preemergence, visual plant response rating; conditions: approx. 10 days
Method in brief: as §2

[18] = tested on: pigweed (Amaranthus retroflexus); experiment: Test A preemergence, visual plant response rating; conditions: approx. 10 days
Method in brief: as §2

| Structure (SMILES) | Plant response rating, Sedge, Umbrella (0 to 100 scale, 0 is no effect, 100 is complete control) [1] | Plant response rating, Ducksalad (0 to 100 scale, 0 is no effect, 100 is complete control) [2] | Plant response rating, Rice (0 to 100 scale, 0 is no effect, 100 is complete control) (rice (Oryza sativa)) | Plant response rating, Barnyardgrass (0 to 100 scale, 0 is no effect, 100 is complete control) [3] | Kochia plant response rating (0 to 100 scale) (kochia (Kochia scoparia) [4]) | Kochia plant response rating (kochia (Kochia scoparia) [4]) | Corn plant response rating (0 to 100 scale) (corn (Zea mays)) | Corn plant response rating (corn (Zea mays)) | Ragweed plant response rating (0 to 100 scale) [5] | Ragweed plant response rating [5] | Galium plant response rating (0 to 100 scale) [6] | Galium plant response rating [6] | Barnyardgrass plant response rating (0 to 100 scale) [7] | Barnyardgrass plant response rating [7] | Blackgrass plant response rating (0 to 100 scale) [8] | Blackgrass plant response rating [8] | Wheat plant response rating (0 to 100 scale) [9] | Wheat plant response rating [9] | Ryegrass, Italian plant response rating (0 to 100 scale) [10] | Ryegrass, Italian plant response rating [10] | further results |
| --- | --- | --- | --- | --- | --- | --- | --- | --- | --- | --- | --- | --- | --- | --- | --- | --- | --- | --- | --- | --- | --- |
| CO/N=C(/c1cc(C)ccc1C)c1c(O)c(C)nn(C)c1=O [Compound 30] | 0 | 0 | 0 | 0 | 30 | 10 | 0 | 0 | 60 | 40 | 80 | 60 | 40 | 20 | 80 | 10 | 30 | 10 | 70 | 40 | Foxtail, Green plant response rating (0 to 100 scale) [11]: 40; Foxtail, Green plant response rating [11]: 0; Pigweed plant response rating (0 to 100 scale) [12]: 50; Pigweed plant response rating [12]: 30; Kochia plant response rating (0 to 100 scale) (kochia (Kochia scoparia) [13]; 125 g ai/ha Preemergence): 0; Kochia plant response rating (0 to 100 scale) (kochia (Kochia scoparia) [13]; 500 g ai/ha Preemergence): 30; Ragweed plant response rating (0 to 100 scale) ([14]; 125 g ai/ha Preemergence): 20; Ragweed plant response rating (0 to 100 scale) ([14]; 500 g ai/ha Preemergence): 70; Barnyardgrass plant response rating (0 to 100 scale) ([15]; 125 g ai/ha Preemergence): 0; Barnyardgrass plant response rating (0 to 100 scale) ([15]; 500 g ai/ha Preemergence): 50; Ryegrass, Italian plant response rating (0 to 100 scale) ([16]; 125 g ai/ha Preemergence): 20; Ryegrass, Italian plant response rating (0 to 100 scale) ([16]; 500 g ai/ha Preemergence): 50; Foxtail, Green plant response rating (0 to 100 scale) ([17]; 125 g ai/ha Preemergence): 0; Foxtail, Green plant response rating (0 to 100 scale) ([17]; 500 g ai/ha Preemergence): 60; Pigweed plant response rating (0 to 100 scale) ([18]; 125 g ai/ha Preemergence): 30; Pigweed plant response rating (0 to 100 scale) ([18]; 500 g ai/ha Preemergence): 80 |
| CO/N=C(/c1c(O)c(C)nn(C)c1=O)c1cccc2ccccc12 [Compound 31] | 0 | 0 | 40 | 25 | 80 | 70 | 50 | 20 | 90 | 70 | 90 | 90 | 90 | 40 | 90 | 80 | 20 | 0 | 90 | 60 | Foxtail, Green plant response rating (0 to 100 scale) [11]: 80; Foxtail, Green plant response rating [11]: 50; Pigweed plant response rating (0 to 100 scale) [12]: 90; Pigweed plant response rating [12]: 60; Kochia plant response rating (0 to 100 scale) (kochia (Kochia scoparia) [13]; 125 g ai/ha Preemergence): 10; Kochia plant response rating (0 to 100 scale) (kochia (Kochia scoparia) [13]; 500 g ai/ha Preemergence): 90; Ragweed plant response rating (0 to 100 scale) ([14]; 125 g ai/ha Preemergence): 30; Ragweed plant response rating (0 to 100 scale) ([14]; 500 g ai/ha Preemergence): 80; Barnyardgrass plant response rating (0 to 100 scale) ([15]; 125 g ai/ha Preemergence): 10; Barnyardgrass plant response rating (0 to 100 scale) ([15]; 500 g ai/ha Preemergence): 70; Ryegrass, Italian plant response rating (0 to 100 scale) ([16]; 125 g ai/ha Preemergence): 40; Ryegrass, Italian plant response rating (0 to 100 scale) ([16]; 500 g ai/ha Preemergence): 70; Foxtail, Green plant response rating (0 to 100 scale) ([17]; 125 g ai/ha Preemergence): 30; Foxtail, Green plant response rating (0 to 100 scale) ([17]; 500 g ai/ha Preemergence): 90; Pigweed plant response rating (0 to 100 scale) ([18]; 125 g ai/ha Preemergence): 40; Pigweed plant response rating (0 to 100 scale) ([18]; 500 g ai/ha Preemergence): 90 |
